In patent publication US8410068B2, “Compounds for the treatment or alleviation of edema, and methods for their use” (Index Pharmaceuticals AB, priority 2007, dated 2013):
Values joined by “and” are separate entries in the source; they are usually repeats but may differ in a detail not shown here. Equal entries are not always repeated.

Tests used:
[1] = test system: arachidonic acid (AA) induced ear edema; test: Arachidonic acid (AA) induced ear edema model; format: in vivo, mice; details: 10 μg one single s.c. injection 20 minutes before AA; compared to PBS control
Procedure: A stock solution of AA was prepared by diluting AA in acetone, 4 mg/10 μL, and was stored frozen at −80° C. A final working solution, 1 mg/10 μL, in acetone was prepared. The working solution was used within one hour after preparation.
(§1) Both outer ears of a non-anesthetized mouse were washed with mild soap (Palmolive, Sweden) using a soft tooth brush, the ears were dried with tissue and cleaned with tissue soaked with acetone. After allowing the acetone to evaporate, TPA or AA was applied on both sides, 10 μL, on each side of the ear with care to cover the whole ear. The mouse was held for 20 seconds to allow the solvent to evaporate.
(§2) The ears of non-anesthetized mice were measured at different time points for up to 96 hours after the TPA was administered, or up to 24 hours for the AA model. The first measurements were done before the edema was induced. The thickness was recorded with a spring loaded dial micrometer (Limit, Thickness Gauge, accuracy 0.01 mm, contact area Ø6 mm, Luna AB, Allingsås, Sweden) in triplicates at all time points per ear.
(§3) The average thickness for both ears on a mouse was calculated and compared to the average thickness of the ears at the starting time point. The value obtained at the start of the experiment was set as 100%. The peak values and area under the curve (AUC) values for the treatment groups were calculated and compared to the inflamed control group, treated with PBS (set as 100%), and expressed as a percentage change (Δ% AUC).
(§4) Area under the curve (AUC) with base line set as 100 was calculated using GraphPad Prism version 4.03 for Windows (GraphPad Software, San Diego Calif. USA, www.graphpad.com).
In addition to the experiments done with the control compounds and IDX0001, all other test compounds were investigated in a similar fashion in the TPA and/or AA ear edema models, where the test compounds were given subcutaneously (10 μg) 20 minutes before induction of edema. The results were expressed as reduction of peak value and reduction of area under curve (AUC) in Table 5.

[2] = test system: thioglycolate induced pleurisy; test: Thioglycolate induced pleurisy; format: in vivo, C57/Bl6 mice; details: 50 μg/mouse i.p. 20 min before induction of pleurisy
Procedure: Mice were anesthetized by an intraperitoneal injection of 0.15-0.20 ml of a mixture of ketamine (Ketalar® Parke-Davis; 25 mg/ml) and xylazine (Narcoxyl Vet.® Veterinaria AG; 5 mg/ml).
The left jugular vein was cannulated with polyethylene tubing (PE10) for intravenous administration (i.v.). A skin incision was made on the right side of the chest. Following dissection of the underlying muscle, pleurisy (inflammation of the lung sack) was induced by a single intrapleural injection of 100 μl of thioglycolate (Sigma). Sterile PBS was used as negative control.
FITC-conjugated dextran in PBS (100 μl, 30 mg/ml) was injected i.v. After 4 h, the animals were euthanized with an overdose of anaesthesia, the chest was carefully opened and the exudate was removed by aspiration and the volume noted. The thorax was then rinsed with 1 ml of ice-cold 3 mM EDTA in PBS. Exudate which was contaminated with red blood cells was discarded.
The exudate and rinsed material was centrifuged at 1500 g for 5 min and the supernatant was used for measurement of fluorescence intensity in a fluorometer (Fluoroskan Acsent, LabSystems) and clearance volume of FITC-dextran was calculated. […]
Cells from the exudate were stained with neutrophil and macrophage specific antibodies and were analyzed by flow cytometry (FACSort and CellQuest software, BD). […]

[3] = test system: tetradecanoylphorbol 13-acetate (TPA) induced ear edema; test: TPA-induced ear edema model; format: in vivo, mice
Procedure: A stock solution of TPA was prepared by dissolving TPA in DMSO, 1 mg/mL, and was stored frozen at −80° C. For study B-E, a working solution was prepared with 200 μL of the TPA stock solution added to 800 μL acetone. The working solution was used the same day as it was prepared.
Each cage was identified by a cage card marked with study number, group number, ethical approval number, sex and animal ear numbers. The animals were individually marked on the tail with transverse lines corresponding to the animals' number, using a permanent-ink felt pen. An illustration of the protocols used for the different treatments is outlined in Table 4. The compounds were tested according to the same protocols with necessary modifications.
Intraperitoneal (i.p.) injections were performed by giving 100 μL in the lower right quadrant of the abdomen. Subcutaneous injections were done with 100 μL in the neck region. Intranasal administration was performed by letting the mouse inhale droplets into the nostrils, total volume 40 μL. All administrations were done on non-anesthetized mice.
as §1
Intraperitoneal injections were given in the lower right quadrant of the abdomen with the animal held in a supine position. Subcutaneous (s.c.) injections were given in the neck of the animals. Intranasal administrations were given to mice held in a slightly reclining position. With an adjustable micro-pipette 40 μL of the test substance was given in droplets on the nostrils and the mouse was allowed to aspirate at free will.
as §2, §3, §4
AUC reduction and P-values were calculated against the positive control (TPA or AA+PBS).

With “G*G*A*ACAGTTCGTCCAT*G*G*C (phosphorothioate linkages, as printed in the source, key not given here) [IDX0150, oligonucleotide used as control; * = phosphorothioate modification]” the “AUC reduction (%) AA” value [1] was −89.4%, the “reduction of number of PMN in pleural exudates” value ([2]; compared to inflamed mice (PBS)) was 42% and 40.9% and the “reduction in clearance volume of pleural edema (vascular permeability)” value ([2]; compared to thioglycolate treatment) was 68.2% and 69.2%. For the same substance, the “average inflammatory peak value of swelling” value ([3]; FIG. 2, 100 μg IDX0150, combined from 10 experiments, vs PBS vehicle with TPA, P<0.001) was “very high statistical significant reduction in peak values”, the “Reduction of AUC compared to PBS” value ([3]; Study A / FIG. 1, 100 μg, one single injection (i.p. in Study A, s.c. in FIG. 1) 20 min before TPA, day 0) was −38.9% and the “reduction of AUC” value ([3]; Study B, 100 μg s.c. 4 days before induction of edema) was “no reduction of AUC”. For the same substance, the “reduction of AUC” value ([3]; Study C (repeat of B), 100 μg s.c. 4 days before induction of edema) was −22%, the “reduction of AUC” value ([3]; Study D, 100 μg s.c. 2 days before induction of edema) was −16.5% and the “reduction of AUC” value ([3]; Study E, 100 μg s.c. same day, approx. 20 min before induction) was −27.3%. For the same substance, the “reduction of AUC” value ([3]; Study F, equal doses 50 μg s.c. same day as swelling induced) was −31.1%, the “reduction of AUC” value ([3]; Study G, therapeutic, 100 μg s.c. 2 hours after induction of edema) was −42.3% and the “reduction of AUC” value ([3]; Study H, 100 μg intranasal 4 days before swelling induced) was −25.7%. The “reduction of AUC” value ([3]; Study I, 100 μg intranasal day 0, same day as edema induced) was −28.4%, the AUC reduced ([3]; Study J, therapeutic, 100 μg intranasal 2 hours after induction) was −28.8% and the “reduction of AUC” value ([3]; Study K dose response, 0.1 μg s.c. day 0) was −13.9%. For the same substance, the “reduction of AUC” value ([3]; Study K dose response, 1 μg s.c. day 0) was −16.3%, the “reduction of AUC” value ([3]; Study K dose response, 10 μg s.c. day 0) was −27.9% and the “reduction of AUC” value ([3]; Study K dose response, 100 μg s.c. day 0) was −45%. For the same substance, the “reduction of AUC” value ([3]; Study O, 10 μg given s.c. on day 0 (Table 4: i.n.)) was −25.5%.
